In ChEMBL document CHEMBL1201861, “Genomics of Drug Sensitity in Cancer screening data, Wellcome Trust Sanger Institute”:

Key:
Assay in all cases: cells
TE-1 = type: functional, cell-based, Homo sapiens; conditions: Homo sapiens, TE-1;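 further: growth inhibition of the human TE-1 cell line, read out with a cell viability assay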
Description: SANGER: Inhibition of human TE-1 cell growth in a cell viability assay.

COLO-668 = type: functional, cell-based, Homo sapiens; conditions: Homo sapiens, COLO-668
Description: SANGER: Inhibition of human COLO-668 cell growth in a cell viability assay.

SW780 = type: functional, cell-based, Homo sapiens; conditions: Homo sapiens, SW780;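 further: growth inhibition of the cells, read out with a cell viability assay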
Description: SANGER: Inhibition of human SW780 cell growth in a cell viability assay.

COLO-792 = type: functional, cell-based, Homo sapiens; conditions: Homo sapiens, COLO-792
Description: SANGER: Inhibition of human COLO-792 cell growth in a cell viability assay.

HuO-3N1 = type: functional, cell-based, Homo sapiens; conditions: Homo sapiens, HuO-3N1;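 further: cell viability readout used to measure how strongly compounds suppress proliferation of human HuO-3N1 cells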
Description: SANGER: Inhibition of human HuO-3N1 cell growth in a cell viability assay.

LB2241-RCC = type: functional, cell-based, Homo sapiens; conditions: Homo sapiens, LB2241-RCC;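 further: cell viability assay measuring how strongly the cultured human renal carcinoma line is prevented from growing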
Description: SANGER: Inhibition of human LB2241-RCC cell growth in a cell viability assay.

PC-3 = type: functional, cell-based, Homo sapiens; conditions: Homo sapiens, PC-3;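 further: cell viability assay measuring growth inhibition of PC-3 cells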
Description: SANGER: Inhibition of human PC-3 cell growth in a cell viability assay.

MG-63 = type: functional, cell-based, Homo sapiens; conditions: Homo sapiens, MG-63;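 further: growth inhibition of human MG-63 cells, read out with a cell viability assay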
Description: SANGER: Inhibition of human MG-63 cell growth in a cell viability assay.

A4-Fuk = type: functional, cell-based; conditions: Homo sapiens;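 further: growth inhibition of A4-Fuk cells, read out by a cell viability assay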
Description: SANGER: Inhibition of human A4-Fuk cell growth in a cell viability assay.

HMV-2 cell line = type: functional, cell-based, Homo sapiens; conditions: Homo sapiens, HMV-2;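 further: growth inhibition of HMV-II cells, read out with a cell viability assay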
Description: SANGER: Inhibition of human HMV-II cell growth in a cell viability assay.

LXF-289 cell line = type: functional, cell-based, Homo sapiens; conditions: Homo sapiens, LXF-289
Description: SANGER: Inhibition of human LXF-289 cell growth in a cell viability assay.

697 = type: functional, cell-based; conditions: Homo sapiens
Description: SANGER: Inhibition of human 697 cell growth in a cell viability assay.

DEL = type: functional, cell-based; conditions: Homo sapiens;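 further: growth inhibition of the human DEL cell line, read out with a cell viability assay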
Description: SANGER: Inhibition of human DEL cell growth in a cell viability assay.

K562 = type: functional, cell-based; conditions: Homo sapiens
Description: SANGER: Inhibition of human K-562 cell growth in a cell viability assay.

A2058 = type: functional, cell-based; conditions: Homo sapiens;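 further: reduction of A2058 cell growth, read out with a viability assay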
Description: SANGER: Inhibition of human A2058 cell growth in a cell viability assay.

NCI-H28 = type: functional, cell-based, Homo sapiens; conditions: Homo sapiens, NCI-H28;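 further: growth inhibition of human NCI-H28 cells, read out as cell viability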
Description: SANGER: Inhibition of human NCI-H28 cell growth in a cell viability assay.

EW-11 = type: functional, cell-based, Homo sapiens; conditions: Homo sapiens, EW-11;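 further: growth inhibition of human EW-11 cells, measured with a cell viability assay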
Description: SANGER: Inhibition of human EW-11 cell growth in a cell viability assay.

647-V = type: functional, cell-based, Homo sapiens; conditions: Homo sapiens, 647-V;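 further: growth inhibition of 647-V cells, read out with a cell viability assay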
Description: SANGER: Inhibition of human 647-V cell growth in a cell viability assay.

SCC-9 = type: functional, cell-based, Homo sapiens; conditions: Homo sapiens, SCC-9;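 further: Read-out is a cell viability assay, with values giving inhibition of cell growth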
Description: SANGER: Inhibition of human SCC-9 cell growth in a cell viability assay.

SNU-C2B = type: functional, cell-based, Homo sapiens; conditions: Homo sapiens, SNU-C2B;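 further: cell viability readout used to measure compound-driven suppression of SNU-C2B cell proliferation, IC50 marking half-maximal growth inhibition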
Description: SANGER: Inhibition of human SNU-C2B cell growth in a cell viability assay.

LOX IMVI = type: functional, cell-based; conditions: Homo sapiens
Description: SANGER: Inhibition of human LOXIMVI cell growth in a cell viability assay.

NCI-H1155 = type: functional, cell-based; conditions: Homo sapiens;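 further: cell growth inhibition measured by a viability assay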
Description: SANGER: Inhibition of human NCI-H1155 cell growth in a cell viability assay.

HCC1937 = type: functional, cell-based, Homo sapiens; conditions: Homo sapiens, HCC1937;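 further: growth inhibition measured with a cell viability read-out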
Description: SANGER: Inhibition of human HCC1937 cell growth in a cell viability assay.

SW48 = type: functional, cell-based, Homo sapiens; conditions: Homo sapiens, SW48;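 further: growth inhibition of SW48 cells, read out with a cell viability assay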
Description: SANGER: Inhibition of human SW48 cell growth in a cell viability assay.

UACC-62 = type: functional, cell-based, Homo sapiens; conditions: Homo sapiens, UACC-62;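 further: growth inhibition of human UACC-62 cells, read out by a cell viability assay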
Description: SANGER: Inhibition of human UACC-62 cell growth in a cell viability assay.

CAL-27 = type: functional, cell-based, Homo sapiens; conditions: Homo sapiens, CAL-27;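 further: Viability-based readout, IC50 reflecting inhibition of CAL-27 cell growth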
Description: SANGER: Inhibition of human CAL-27 cell growth in a cell viability assay.

SW1463 = type: functional, cell-based, Homo sapiens; conditions: Homo sapiens, SW1463;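 further: growth inhibition of SW1463 cells, determined with a cell viability assay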
Description: SANGER: Inhibition of human SW1463 cell growth in a cell viability assay.

COLO-678 = type: functional, cell-based, Homo sapiens; conditions: Homo sapiens, COLO-678
Description: SANGER: Inhibition of human COLO-678 cell growth in a cell viability assay.

Hs-578T = type: functional, cell-based, Homo sapiens; conditions: Homo sapiens, Hs-578T
Description: SANGER: Inhibition of human Hs-578-T cell growth in a cell viability assay.

KARPAS-299 = type: functional, cell-based; conditions: Homo sapiens
Description: SANGER: Inhibition of human KARPAS-299 cell growth in a cell viability assay.

COR-L23 = type: functional, cell-based, Homo sapiens; conditions: Homo sapiens, COR-L23;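 further: cell viability assay measuring how strongly compounds suppress growth of COR-L23 cells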
Description: SANGER: Inhibition of human COR-L23 cell growth in a cell viability assay.

NCI-H1355 = type: functional, cell-based, Homo sapiens; conditions: Homo sapiens, NCI-H1355;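 further: growth inhibition of human NCI-H1355 cells, read out by a cell viability assay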
Description: SANGER: Inhibition of human NCI-H1355 cell growth in a cell viability assay.

MMAC-SF = type: functional, cell-based, Homo sapiens; conditions: Homo sapiens, MMAC-SF;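 further: growth inhibition of human MMAC-SF cells, read out with a cell viability assay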
Description: SANGER: Inhibition of human MMAC-SF cell growth in a cell viability assay.

OCUB-M = type: functional, cell-based, Homo sapiens; conditions: Homo sapiens, OCUB-M;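 further: growth inhibition of the cancer cell line, read out through a cell viability assay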
Description: SANGER: Inhibition of human OCUB-M cell growth in a cell viability assay.

Calu-6 = type: functional, cell-based, Homo sapiens; conditions: Homo sapiens, Calu-6;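 further: growth of human Calu-6 cells, read out by a cell viability assay, IC50 marking inhibition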
Description: SANGER: Inhibition of human Calu-6 cell growth in a cell viability assay.

OE19 = type: functional, cell-based, Homo sapiens; conditions: Homo sapiens, OE19;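 further: growth inhibition of OE19 cells, measured through a cell viability read-out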
Description: SANGER: Inhibition of human OE19 cell growth in a cell viability assay.

HD-MY-Z = type: functional, cell-based, Homo sapiens; conditions: Homo sapiens, HD-MY-Z;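 further: growth inhibition of HD-MY-Z cells, read out with a cell viability assay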
Description: SANGER: Inhibition of human HD-MY-Z cell growth in a cell viability assay.

NCI-H1650 = type: functional, cell-based, Homo sapiens; conditions: Homo sapiens, NCI-H1650;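 further: growth inhibition of human NCI-H1650 cells measured by a cell viability assay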
Description: SANGER: Inhibition of human NCI-H1650 cell growth in a cell viability assay.

OVCAR-5 = type: functional, cell-based, Homo sapiens; conditions: Homo sapiens, OVCAR-5;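 further: growth inhibition of human OVCAR-5 cells, read out with a cell viability assay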
Description: SANGER: Inhibition of human OVCAR-5 cell growth in a cell viability assay.

MCF7 = type: functional, cell-based, Homo sapiens; conditions: Homo sapiens, MCF7;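 further: growth inhibition of human MCF7 cells, read out with a cell viability assay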
Description: SANGER: Inhibition of human MCF7 cell growth in a cell viability assay.

BHY = type: functional, cell-based, Homo sapiens; conditions: Homo sapiens, BHY;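 further: cell growth inhibition read out by a viability assay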
Description: SANGER: Inhibition of human BHY cell growth in a cell viability assay.

RXF 393 = type: functional, cell-based; conditions: Homo sapiens;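 further: growth inhibition of human RXF 393 cells, read out with a cell viability assay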
Description: SANGER: Inhibition of human RXF393 cell growth in a cell viability assay.

ML-2 = type: functional, cell-based; conditions: Homo sapiens;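 further: growth inhibition of ML-2 cells, measured with a cell viability readout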
Description: SANGER: Inhibition of human ML-2 cell growth in a cell viability assay.

LU-99A = type: functional, cell-based, Homo sapiens; conditions: Homo sapiens, LU-99A;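 further: growth inhibition of LU-99A cells, read out with a cell viability assay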
Description: SANGER: Inhibition of human LU-99A cell growth in a cell viability assay.

PC-14 = type: functional, cell-based, Homo sapiens; conditions: Homo sapiens, PC-14;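 further: cell viability assay measuring inhibition of PC-14 cell growth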
Description: SANGER: Inhibition of human PC-14 cell growth in a cell viability assay.

DMS-79 = type: functional, cell-based; conditions: Homo sapiens;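 further: growth inhibition measured with a cell viability assay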
Description: SANGER: Inhibition of human DMS-79 cell growth in a cell viability assay.

HEL = type: functional, cell-based, Homo sapiens; conditions: Homo sapiens, HEL;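 further: growth inhibition of HEL cells, read out with a cell viability assay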
Description: SANGER: Inhibition of human HEL cell growth in a cell viability assay.

RD = type: functional, cell-based, Homo sapiens; conditions: Homo sapiens, RD
Description: SANGER: Inhibition of human RD cell growth in a cell viability assay.

ES6 = type: functional, cell-based, Homo sapiens; conditions: Homo sapiens, ES6;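 further: growth inhibition of human ES6 cells, read out with a cell viability assay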
Description: SANGER: Inhibition of human ES6 cell growth in a cell viability assay.

Becker = type: functional, cell-based, Homo sapiens; conditions: Homo sapiens, Becker;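 further: growth inhibition of Becker cells, read out with a cell viability assay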
Description: SANGER: Inhibition of human Becker cell growth in a cell viability assay.

S-117 = type: functional, cell-based, Homo sapiens; conditions: Homo sapiens, S-117
Description: SANGER: Inhibition of human S-117 cell growth in a cell viability assay.

KP-N-YS = type: functional, cell-based; conditions: Homo sapiens;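 further: cell viability assay measuring inhibition of cell line growth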
Description: SANGER: Inhibition of human KP-N-YS cell growth in a cell viability assay.

O=C(c1cc(Cc2n[nH]c(=O)c3ccccc23)ccc1F)N1CCN(C(=O)C2CC2)CC1 [OLAPARIB]
IC50 (TE-1): > 5 µM | IC50 (COLO-668): > 5 µM | IC50 (SW780): > 5 µM | IC50 (COLO-792): > 5 µM | IC50 (HuO-3N1): > 5 µM | IC50 (LB2241-RCC): > 5 µM | IC50 (PC-3): > 5 µM | IC50 (MG-63): > 5 µM | IC50 (A4-Fuk): > 5 µM | IC50 (HMV-2 cell line): > 5 µM | IC50 (LXF-289 cell line): > 5 µM | IC50 697: 2.84 µM | IC50 (DEL): > 5 µM | IC50 (K562): > 5 µM | IC50 (A2058): > 5 µM | IC50 (NCI-H28): > 5 µM | IC50 (EW-11): > 5 µM | IC50 (647-V): > 5 µM | IC50 (SCC-9): > 5 µM | IC50 (SNU-C2B): > 5 µM | IC50 (LOX IMVI): > 5 µM | IC50 (NCI-H1155): > 5 µM | IC50 (HCC1937): > 5 µM | IC50 (SW48): > 5 µM | IC50 (UACC-62): > 5 µM | IC50 (CAL-27): > 5 µM | IC50 (SW1463): > 5 µM | IC50 (COLO-678): > 5 µM | IC50 (Hs-578T): > 5 µM | IC50 (KARPAS-299): > 5 µM | IC50 (COR-L23): > 5 µM | IC50 (NCI-H1355): > 5 µM | IC50 (MMAC-SF): > 5 µM | IC50 (OCUB-M): > 5 µM | IC50 (Calu-6): > 5 µM | IC50 (OE19): > 5 µM | IC50 (HD-MY-Z): > 5 µM | IC50 (NCI-H1650): > 5 µM | IC50 (OVCAR-5): > 5 µM | IC50 (MCF7): > 5 µM | IC50 (BHY): > 5 µM | IC50 (RXF 393): > 5 µM | IC50 (ML-2): 3.6 µM | IC50 (LU-99A): > 5 µM | IC50 (PC-14): > 5 µM | IC50 (DMS-79): > 5 µM | IC50 (HEL): > 5 µM | IC50 (RD): > 5 µM | IC50 (ES6): > 5 µM | IC50 (Becker): > 5 µM | IC50 (S-117): > 5 µM | IC50 (KP-N-YS): > 5 µM
